Experimental data published in patent publication US20230399321A1, “CRYSTALLINE FORM II OF MELANOCORTIN RECEPTOR AGONIST COMPOUND AND PREPARATION METHOD THEREFOR” (LG CHEM, LTD., priority 2020, published 2023).
Structures can show the parent of a compound that is named as a salt.

Tests used:
[1] = Thermogravimetric analysis (TGA); type: physicochemical; conditions: heated from 30° C. to 350° C. at 10° C./min; no weight loss in the DSC endothermic section
Procedure: The TGA was measured using Mettler Toledo TGA/DSC 1 module. About 4-8 mg of the sample is weighed and put into a 100 μL Al crucible (flat-bottomed aluminum crucibles). Then, TGA measurement is performed while the sample is heated from 30° C. to 350° C. at a rate of 10° C./min. During the measurement, nitrogen gas is supplied to the inside of the instrument at a rate of 80 mL/min to prevent the inflow of oxygen and other gases. Data collection and evaluation were performed using the software STARe.

[2] = Stability assessment by HPLC after storage; type: physicochemical; conditions: for HPLC analysis result, Open ACC: open state, accelerated condition (40° C., 75% RH); for HPLC analysis result, Open ACC / HPLC analysis result, Closed STR: in % (unit assumed); for HPLC analysis result, Closed STR: sealed state, harsh condition, oven at 80° C.
Procedure: About 10-30 mg of the sample was stored for 4 weeks in an open state under the accelerated condition (40° C., 75% RH) or in a sealed state under the harsh condition in an oven at 80° C.

thermal stability [1]: thermally stable crystalline form
chemical stability to heat and humidity ([2]; 4 weeks under the accelerated condition (40° C., 75% RH) and the harsh condition (80° C.)): showed chemical stability for 4 weeks
HPLC analysis result, Open ACC ([2]; Week 2): 97.67
HPLC analysis result, Closed STR ([2]; Week 2): 97.73
HPLC analysis result, Open ACC ([2]; Week 4): 97.82
HPLC analysis result, Closed STR ([2]; Week 4): 97.94
HPLC analysis result, Initial ([2]; initial, before storage): 97.7%
SMILES: CC(C)C(=O)N([C@H]1C[C@@H](C(=O)N2CCOCC2)N(C(=O)[C@@H]2CN(C(C)(C)C)C[C@H]2c2ccc(Cl)cc2)C1)[C@H]1CC[C@@H](C)CC1 [Example 1, N-((3S,5S)-1-((3S,4R)-1-(tert-butyl)-4-(4-chlorophenyl)pyrrolidine-3-carbonyl)-5-(morpholine-4-carbonyl)pyrrolidin-3-yl)-N-((1s,4R)-4-methylcyclohexyl) isobutyramide hydrochloride]
